In publication PMC10425983 (ACS Infectious Diseases, 2023):

Assays:
[1] = system: L. infantum (MHOM/MA(BE)/67/ITMAP263) amastigotes; experiment: L. infantum intramacrophage amastigote assay; type: cell-based, Leishmania infantum; details: for EC50: Leishmania infantum, 120 h, read-out: L.inf pEC50 (converted); for SI: ratio CC50 μM (PMM)/EC50 μM (L.inf)
[2] = Human liver microsome intrinsic clearance; type: in vitro ADME; details: for microsomal CLint at 3 µM: human, human liver microsomes, pH 7.4, HLM clint
[3] = Rat hepatocyte intrinsic clearance; type: in vitro ADME; details: for hepatocyte CLint: rat, rat hepatocytes
[4] = Cytotoxicity toward primary peritoneal mouse macrophages; type: cell-based; details: Swiss, mouse, primary peritoneal mouse macrophages (PMM), PMM pCC50, primary mouse macrophages; highest in-test concentration 64 μM
[5] = Thermodynamic aqueous solubility; type: physicochemical
[6] = Free plasma concentration; type: in vitro ADME; details: free fraction in plasma
[7] = system: primary peritoneal mouse macrophages (PMM); experiment: Cytotoxicity toward primary peritoneal mouse macrophages; type: cell-based; details: primary mouse macrophages; highest in-test concentration 64 μM

| Compound | EC50 [1] [µM] | SI [1] | microsomal CLint at 3 µM [2] [µL/min/mg] | hepatocyte CLint [3] [µL/min/1e6 cells] | CC50 at 5 days [4] [µM] | aq. sol. [5] [µM] | free plasma concentration [6] [%] | PMM pCC50 [7] | metabolic stability class in human liver microsomes ([2]; clearance class in words) | metabolic stability class in rat hepatocytes ([3]; clearance class in words) |
| --- | --- | --- | --- | --- | --- | --- | --- | --- | --- | --- |
| COc1cccn2c(Nc3ccc(F)cc3)c(-c3ccccn3)nc12 [Compound 3l, N-(4-Fluorophenyl)-8-methoxy-2-(pyridin-2-yl)imidazo[1,2-a]pyridin-3-amine] | 7.94 | 8 | 143 | 29 | > 63.1 | 2 | – | – | – | – |
| Fc1ccc(Nc2c(-c3ccccn3)nc3ncccn23)cc1 [Compound 3m, N-(4-Fluorophenyl)-2-(pyridin-2-yl)imidazo[1,2-a]pyrimidin-3-amine] | 50.1 | 1 | 42.4 | 64.8 | > 63.1 | 180 | – | – | – | – |
| Fc1ccc(Nc2c(-c3ccccn3)nc3cccnn23)cc1 [Compound 3d, N-(4-Fluorophenyl)-2-(pyridin-2-yl)imidazo[1,2-b]pyridazin-3-amine] | 15.8 | 2 | 212 | > 300 | 31.6 | 68 | – | – | – | – |
| Fc1ccc(Nc2c(-c3ccccn3)nc3cccc(F)n23)cc1 [Compound 3b, 5-Fluoro-N-(4-fluorophenyl)-2-(pyridin-2-yl)imidazo[1,2-a]pyridin-3-amine] | 7.94 | 8 | 60 | 190 | > 63.1 | 26 | – | – | – | – |
| COc1ccc2nc(-c3ccccn3)c(N(C)c3ccc(F)cc3)n2c1 [Compound 4n, N-(4-Fluorophenyl)-6-methoxy-N-methyl-2-(pyridin-2-yl)imidazo[1,2-a]pyridin-3-amine] | – | – | – | – | – | – | 2 | – | – | – |
| CS(=O)(=O)c1ccc2nc(-c3ccccn3)c(Nc3ccc(F)cc3)n2c1 [Compound 3o, N-(4-Fluorophenyl)-6-methanesulfonyl-2-(pyridin-2-yl)imidazo[1,2-a]pyridin-3-amine] | 31.6 | 1 | – | > 300 | 31.6 | 5 | – | – | – | – |
| Fc1ccc(Nc2c(-c3ccccn3)nc3ccc(-c4cnoc4)cn23)cc1 [Compound 3q, N-(4-Fluorophenyl)-6-(1,2-oxazol-4-yl)-2-(pyridin-2-yl)imidazo[1,2-a]pyridin-3-amine] | 25.1 | 3 | 75 | 128 | > 63.1 | 3 | – | – | – | – |
| Fc1ccc(Nc2c(-c3ccccn3)nc3cnccn23)cc1 [Compound 3j, N-(4-Fluorophenyl)-2-(pyridin-2-yl)imidazo[1,2-a]pyrazin-3-amine] | > 63.1 | 1 | 202 | 64.2 | > 63.1 | 61 | – | – | – | – |
| COc1ccc2nc(-c3ccccn3)c(Nc3ccc(F)cc3)n2c1 [Compound 3f, N-(4-Fluorophenyl)-6-methoxy-2-(pyridin-2-yl)imidazo[1,2-a]pyridin-3-amine] | 2 | 16 | – | – | 31.6 | – | – | – | – | – |
| Fc1ccc(Nc2c(-c3ccccn3)nc3c(F)cccn23)cc1 [Compound 3k, 8-Fluoro-N-(4-fluorophenyl)-2-(pyridin-2-yl)imidazo[1,2-a]pyridin-3-amine] | 39.8 | 2 | 220 | 101 | > 63.1 | 12 | – | – | – | – |
| COc1ccn2cc(-c3ccccn3)nc2c1 [Compound 11b, 7-Methoxy-2-(pyridin-2-yl)imidazo[1,2-a]pyridine] | 25.1 | 3 | > 300 | – | > 63.1 | 723 | – | – | – | – |
| c1ccc(-c2cn3ccccc3n2)nc1 [Compound 11a, 2-(Pyridin-2-yl)imidazo[1,2-a]pyridine] | 50.1 | 1 | 130 | 140 | > 63.1 | 828 | – | – | – | – |
| Fc1ccc(Nc2c(-c3ccccn3)nc3sccn23)cc1 [Compound 3r, N-(4-Fluorophenyl)-6-(pyridin-2-yl)imidazo[2,1-b][1,3]thiazol-5-amine] | 7.94 | 4 | 270 | > 300 | 31.6 | 76 | – | – | – | – |
| Fc1ccc(Nc2c(-c3ccccn3)nc3ccccn23)cc1 [Compound 3a, N-(4-Fluorophenyl)-2-(pyridin-2-yl)imidazo[1,2-a]pyridin-3-amine] | 3.98 | 16 | 137 | > 300 | – | 8 | – | < 4.2 | – | – |
| Fc1ccc(Nc2c(-c3ccccn3)nc3ccccn23)nc1 [Compound 8, 5-Fluoro-N-[2-(pyridin-2-yl)imidazo[1,2-a]pyridin-3-yl]pyridin-2-amine] | – | – | – | – | – | – | – | – | moderate (8.6 ≤ moderate ≤47) | moderate (5.1 ≤ moderate ≤27) |
| Fc1ccc(Nc2c(-c3ccccn3)nc3ccc(F)cn23)cc1 [Compound 3e, 6-Fluoro-N-(4-fluorophenyl)-2-(pyridin-2-yl)imidazo[1,2-a]pyridin-3-amine] | 7.94 | 6 | > 300 | > 300 | 50.1 | 25 | – | – | – | – |
| Fc1ccc(Nc2c(-c3ccccn3)nc3ccncn23)cc1 [Compound 3g, N-(4-Fluorophenyl)-2-(pyridin-2-yl)imidazo[1,2-c]pyrimidin-3-amine] | 50.1 | 1 | – | – | > 63.1 | 64 | – | – | – | – |
| COc1cccc2nc(-c3ccccn3)c(Nc3ccc(F)cc3)n12 [Compound 3c, N-(4-Fluorophenyl)-5-methoxy-2-(pyridin-2-yl)imidazo[1,2-a]pyridin-3-amine] | 7.94 | 1 | 28 | 30 | 7.94 | 62 | – | – | – | – |
| CSc1ccc2nc(-c3ccccn3)c(Nc3ccc(F)cc3)n2c1 [Compound 3n, N-(4-Fluorophenyl)-6-(methylsulfanyl)-2-(pyridin-2-yl)imidazo[1,2-a]pyridin-3-amine] | 7.94 | 1 | 247 | > 300 | 7.94 | 0.5 | – | – | – | – |
| COc1ccn2c(Cl)c(-c3ccccn3)nc2c1 [Compound 12, 3-Chloro-7-methoxy-2-(pyridin-2-yl)imidazo[1,2-a]pyridine] | 15.8 | 2 | > 300 | 17 | 31.6 | 562 | – | – | – | – |
| Fc1ccc(Nc2c(-c3ccccn3)nc3cc(F)ccn23)cc1 [Compound 3h, 7-Fluoro-N-(4-fluorophenyl)-2-(pyridin-2-yl)imidazo[1,2-a]pyridin-3-amine] | 25.1 | 3 | > 300 | 146 | > 63.1 | 0.1 | – | – | – | – |
| COc1ccn2c(N)c(-c3ccccn3)nc2c1 [Compound 7b, 7-Methoxy-2-(pyridin-2-yl)imidazo[1,2-a]pyridin-3-amine] | 31.6 | 2 | 120 | 7.1 | > 63.1 | 290 | – | – | – | – |
